Laboratory results as given in patent publication US6433022B1, “Spermicide” (Medical Research Council, priority 1997, dated 2002).
pIC50: −log10 of the molar value.

Experiments:
Type in all cases: cell-based
human spermatozoa [1] = experiment: Effect of inhibitors on NADPH-induced ROS generation, lucigenin-dependent chemiluminescence; conditions: for Lucigenin dependent chemiluminescence: Treated, NADPH-induced, means ± SE; for effect on NADPH-dependent reactive oxygen species generation: dicoumarol 100 μM, sodium oxamate 1 mM, allopurinol 10 mM; for effect of mitochondrial electron transport chain inhibitors on response to NADPH: intact spermatozoa; for inhibition of the response to NAD(P)H: triton permeabilized cells
Excerpt: ROS generation was monitored by luminometry employing the chemiluminescence probes lucigenin and luminol. Lucigenin is sensitive to the presence of superoxide anion and was used to monitor the free radical responses to NAD(P)H. Luminol, when used in conjunction with horseradish peroxidase (HRP; Sigma Type Vl, 288 U/mg), detects mainly hydrogen peroxide (Aitken et al., 1992) and was used to monitor the responses of spermatozoa to PMA (phorbol 12-myristate, 13-acetate), an activator of protein kinase C. […] Photon emission was monitored at 37° C. using the Bermold 9505B luminometer (Berthold, Wilbad, Germany) featuring 6 electronically compensated, peltier cooled, photomultipliers and the results expressed as counts/minute. For both of the probes used, 400 μl of spermatozoa, at a concentration of 10×10^6/ml, were placed in a 3 ml plastic, flat-bottomed plastic tube. For luminol-based reactions, the spermatozoa were suspended in BWW supplemented with Albuminar, but when lucigenin was used the Albuminar was replaced with 1 mg/ml polyvinyl alcohol. A 4 μl aliquot of a 25 mM stock solution of either luminol or lucigenin m-dimethyl sulphoxide (DMSO), was then added to the cell suspension, resulting in a final probe concentration of 250 μM. For the measurement of hydrogen peroxide generation by intact cells, luminol-dependent chemiluminescence was enhanced by addition of 8 μl of HRP, freshly prepared at a concentration of 2 mg/ml in PBS, to give a final HRP concentration of 11.52 U/ml. The luminometer results were recorded as continuous traces and as integrated photon counts over a fixed period of time (5 min).
In all experiments, DPI was added to the spermatozoa before the addition of NADPH or PMA while control incubations were supplemented with DMSO alone. ROS generation was recorded for approximately 10 min to establish a steady state signal and then 45 μl of NADPH (final concentration 500 μM) or 4 μl of PMA (final concentration 100 nM) were added and the responses monitored for around 20 min using lucigenin and luminol-peroxidase based chemiluminescence respectively.
Quinacrine was purchased from Sigma and dissolved in 10% DMSO to give a stock solution of 10 mM. […] The impact of quinacrine on NADPH- and PMA-induced ROS generation was monitored as described above for DPI.

human spermatozoa [2] = experiment: Effect of inhibitors on PMA-induced hydrogen peroxide production, luminol-peroxidase chemiluminescence; conditions: 100 nM PMA
Excerpt: ROS generation was monitored by luminometry employing the chemiluminescence probes lucigenin and luminol. Lucigenin is sensitive to the presence of superoxide anion and was used to monitor the free radical responses to NAD(P)H. Luminol, when used in conjunction with horseradish peroxidase (HRP; Sigma Type Vl, 288 U/mg), detects mainly hydrogen peroxide (Aitken et al., 1992) and was used to monitor the responses of spermatozoa to PMA (phorbol 12-myristate, 13-acetate), an activator of protein kinase C. […] Photon emission was monitored at 37° C. using the Bermold 9505B luminometer (Berthold, Wilbad, Germany) featuring 6 electronically compensated, peltier cooled, photomultipliers and the results expressed as counts/minute. […] The luminometer results were recorded as continuous traces and as integrated photon counts over a fixed period of time (5 min).
In all experiments, DPI was added to the spermatozoa before the addition of NADPH or PMA while control incubations were supplemented with DMSO alone. ROS generation was recorded for approximately 10 min to establish a steady state signal and then 45 μl of NADPH (final concentration 500 μM) or 4 μl of PMA (final concentration 100 nM) were added and the responses monitored for around 20 min using lucigenin and luminol-peroxidase based chemiluminescence respectively. […]

human spermatozoa [3] = experiment: Nicotinamide dinucleotide-induced superoxide generation, lucigenin-dependent chemiluminescence; conditions: 500 μM nucleotide
Excerpt: ROS generation was monitored by luminometry employing the chemiluminescence probes lucigenin and luminol. Lucigenin is sensitive to the presence of superoxide anion and was used to monitor the free radical responses to NAD(P)H. Luminol, when used in conjunction with horseradish peroxidase (HRP; Sigma Type Vl, 288 U/mg), detects mainly hydrogen peroxide (Aitken et al., 1992) and was used to monitor the responses of spermatozoa to PMA (phorbol 12-myristate, 13-acetate), an activator of protein kinase C. NAD(P)H could not be used with the luminol-peroxidase system because of the generation of high background signals, presumably due to the oxidase reactions of HRP. Photon emission was monitored at 37° C. using the Bermold 9505B luminometer (Berthold, Wilbad, Germany) featuring 6 electronically compensated, peltier cooled, photomultipliers and the results expressed as counts/minute. For both of the probes used, 400 μl of spermatozoa, at a concentration of 10×10^6/ml, were placed in a 3 ml plastic, flat-bottomed plastic tube. For luminol-based reactions, the spermatozoa were suspended in BWW supplemented with Albuminar, but when lucigenin was used the Albuminar was replaced with 1 mg/ml polyvinyl alcohol. A 4 μl aliquot of a 25 mM stock solution of either luminol or lucigenin m-dimethyl sulphoxide (DMSO), was then added to the cell suspension, resulting in a final probe concentration of 250 μM. For the measurement of hydrogen peroxide generation by intact cells, luminol-dependent chemiluminescence was enhanced by addition of 8 μl of HRP, freshly prepared at a concentration of 2 mg/ml in PBS, to give a final HRP concentration of 11.52 U/ml. The luminometer results were recorded as continuous traces and as integrated photon counts over a fixed period of time (5 min).
The ability of human spermatozoa to generate superoxide anion in response to NADPH was monitored by lucigenin-dependent chemiluminescence and compared with its non-phosphorylated and non-reduced counterparts, i.e. NADH, NADP^+ and NAD^+. In addition, the stimulatory properties of an isomer of NADPH, usually non-active in reductive biosynthesis, were examined. All pyridine nucleotides were made up to the required concentration in PBS immediately prior to use. Stock solutions of the nucleotides were made up at concentrations 10 fold higher than the required final working concentration, to allow for a 10 fold dilution on addition to the suspensions of spermatozoa.

human sperm = experiment: Effect of quinones on sperm motility; conditions: for mean motility score: 50 μM quinone, human sperm
Procedure: Following the preparation of spermatozoa by standard Percoll gradient they were resuspended in homologous seminal plasma to a concentration of 20 million per ml, immediately prior to the beginning of the experiment. 50 μl of the sperm suspension was placed in an eppendorf tube, and the quinone was either added alone or in combination with other reagents, for example, KI, HRP (Horseradish Peroxidase), BHT (butylated hydroxytoluene) etc. depending on the experiment. The volume was made up to 100 μl with BWW/PVA.
The quinone was always the final reagent to be added. […] The sample was gently agitated and 10 μl was placed on a slide and a motility was scored. The aim was to score a motility approximately 20 seconds following the addition of the quinone. There were two controls set up, one motility count taken at the beginning of the experiment (initial control) and one motility count taken at the end of the experiment (final control). The controls consisted of 50 μl of the sperm suspension followed by the addition of 50 μl BWW/PVA. The reason for having two controls was to observe if any changes in sperm motility had occurred simply as a factor of time, i.e. from residing in seminal plasma for a long duration. At all times during the experiment, the spermatozoa were incubated in a hot box at 24° C. All motility experiments were carried out on sperm suspended in seminal plasma unless otherwise stated.

## Oc1ncnc2[nH]ncc12 [Allopurinol, allopurinol]
Human spermatozoa [1]; inhibitor 10 mM
  Lucigenin dependent chemiluminescence: 7.19 ± 1.66 counts/5 min × 104
Human spermatozoa [1]
  effect on NADPH-dependent reactive oxygen species generation: ineffective

## N#CC(C#N)=NNc1cccc(Cl)c1 [CCP, carbonyl cyanide m-chlorophenylhydrazone]
Human spermatozoa [1]; inhibitor 10 μM
  Lucigenin dependent chemiluminescence: 12.61 ± 6.97 counts/5 min × 104
Human spermatozoa [1]
  effect of mitochondrial electron transport chain inhibitors on response to NADPH: none of which were effective

## c1ccc2c(c1)[I+]c1ccccc1-2 [DPI, Diphenylene Iodonium]
Human spermatozoa [1]; 500 μM NADPH, statistically significant at the 1 μM level (P<0.001)
  suppression of NADPH-induced free radical generation: dose-dependent capacity to suppress
Human spermatozoa [2]; dose range 0.01-100 μM
  inhibition of PMA-stimulated hydrogen peroxide production: competent to inhibit

## O=c1oc2ccccc2c(O)c1Cc1c(O)c2ccccc2oc1=O [Dicoumarol, dicoumarol]
Human spermatozoa [1]; inhibitor 100 μM
  Lucigenin dependent chemiluminescence: 5.20 ± 2.10 counts/5 min × 104
Human spermatozoa [1]
  effect on NADPH-dependent reactive oxygen species generation: ineffective

## NC(=O)C1=CN([C@@H]2O[C@H](COP(=O)(O)OP(=O)(O)OC[C@H]3O[C@@H](n4cnc5c(N)ncnc54)[C@H](O)[C@@H]3O)[C@@H](O)[C@H]2O)C=CC1 [NADH]
Human spermatozoa [3]
  lucigenin-dependent chemiluminescent response (superoxide anion generation): approximately one third of that induced by β-NADPH

## NC(=O)c1ccc[n+]([C@@H]2O[C@H](COP(=O)([O-])OP(=O)(O)OC[C@H]3O[C@@H](n4cnc5c(N)ncnc54)[C@H](OP(=O)(O)O)[C@@H]3O)[C@@H](O)[C@H]2O)c1 [NADP^+]
Human spermatozoa [3]
  lucigenin-dependent chemiluminescent response (superoxide anion generation): almost completely without effect

## NC(=O)c1ccc[n+]([C@@H]2O[C@H](COP(=O)([O-])OP(=O)(O)OC[C@H]3O[C@@H](n4cnc5c(N)ncnc54)[C@H](O)[C@@H]3O)[C@@H](O)[C@H]2O)c1 [NAD^+]
Human spermatozoa [3]
  lucigenin-dependent chemiluminescent response (superoxide anion generation): almost completely without effect

## C=C(C)[C@H]1Cc2c(ccc3c2O[C@@H]2COc4cc(OC)c(OC)cc4[C@@H]2C3=O)O1 [Rotenone, rotenone]
Human spermatozoa [1]; inhibitor 10 μM
  Lucigenin dependent chemiluminescence: 9.07 ± 2.26 counts/5 min × 104
Human spermatozoa [1]
  effect of mitochondrial electron transport chain inhibitors on response to NADPH: none of which were effective
  inhibition of the response to NAD(P)H: no inhibition

## NC(=O)C(=O)[O-].[Na+] [Sodium Oxamate, sodium oxamate]
Human spermatozoa [1]; inhibitor 1 mM
  Lucigenin dependent chemiluminescence: 5.20 ± 2.10 counts/5 min × 104
Human spermatozoa [1]
  effect on NADPH-dependent reactive oxygen species generation: ineffective

## [N-]=[N+]=[N-] [Sodium azide, sodium azide]
Human spermatozoa [1]; inhibitor 10 μM
  Lucigenin dependent chemiluminescence: 7.69 ± 1.54 counts/5 min × 104

## O=C1C=CC(=O)c2c(O)cccc21 [juglone]
Human sperm
  mean motility score: 5%
Human sperm; human sperm in seminal plasma, motility scored approximately 20 seconds after addition, read-out: ID50, dose-dependent inhibition of sperm motility
  pIC50: ~5.00

## O=C1C=C(O)C(=O)c2ccccc21 [lawsone]
Human sperm
  mean motility score: 51%

## CC[C@H]1/C=C/C=C/C[C@@H](C)[C@H](O)[C@@](C)(O)C(=O)[C@@H](C)[C@H](O)[C@@H](C)C(=O)[C@@H](C)[C@H](O)[C@@H](C)/C=C/C(=O)O[C@@H]2[C@H](C)[C@H](CC1)O[C@]1(CC[C@H](C)[C@H](C[C@@H](C)O)O1)[C@H]2C [oligomycin]
Human spermatozoa [1]
  inhibition of the response to NAD(P)H: no inhibition

## CC1=CC(=O)c2c(O)cccc2C1=O [plumbagin]
Human sperm
  mean motility score: 54%

## CCN(CC)CCCC(C)Nc1c2ccc(Cl)cc2nc2ccc(OC)cc12 (stereo not shown) [quinacrine]
Human spermatozoa [1]; 500 μM NADPH, concentrations as high as 50 μM, no dose/response relationship
  suppression of NADPH-induced ROS production: 30-40%
Human spermatozoa [2]; doses of 75-100 M
  suppression of responses to PMA: complete loss of activity

## NC(=O)C1=CN([C@H]2O[C@H](COP(=O)(O)OP(=O)(O)OC[C@H]3O[C@@H](n4cnc5c(N)ncnc54)[C@H](OP(=O)(O)O)[C@@H]3O)[C@@H](O)[C@H]2O)C=CC1 [α NADPH]
Human spermatozoa [3]
  lucigenin-dependent chemiluminescent response (superoxide anion generation): lack of response

## antimycin A
Human spermatozoa [1]; inhibitor 50 μM
  Lucigenin dependent chemiluminescence: 10.53 ± 2.49 counts/5 min × 104
Human spermatozoa [1]
  effect of mitochondrial electron transport chain inhibitors on response to NADPH: none of which were effective
  inhibition of the response to NAD(P)H: no inhibition
